The text below walks through data of ChEMBL document CHEMBL1914367, “Formation, recognition and bioactivities of a novel G-quadruplex in the STAT3 gene” (Bioorg Med Chem Lett, 2011).

Assay [1] concerns Nucleic Acid. The assay is described as follows: Binding affinity to human VEGF G-quadruplex 5'-GGGGCGGGCCGGGGGCGGGG-3' assessed as the intensity ratio of all complex ions to the sum of all G-quadruplex and complex ions at 20 uM by ESI mass spectroscopy relative to control. It counts as nucleic-acid assay.
In assay [2] the test system is Nucleic Acid. The assay is described as follows: Binding affinity to STAT3 G-quadruplex in 3'-flanking region 5'-GGGCTGGGGATGGGGAGGGGG-3' assessed as melting temperature at 20 uM by UV-Vis spectrophotometry (reference value: 58 degC). Format: nucleic-acid assay.
Assay [3] relates to HEK293. The assay is described as follows: Down regulation of human STAT3 gene expression in human HEK293 cells cloned with MutQ vector harboring G-quadruplex GGG to GTG substitution mutation at 2 to 10 uM after 24 hrs by luciferase reporter gene assay. It counts as functional, cell-based. On the technique in general: A reporter such as luciferase makes a cellular process visible.

The test system of assay [4] is Nucleic Acid. In words: Binding affinity to STAT3 G-quadruplex in 3'-flanking region 5'-GGGCTGGGGATGGGGAGGGGG-3' assessed as intensity ratio of all complex ions to the sum of all G-quadruplex and complex ions at 20 uM by ESI mass spectroscopy relative to control. It counts as nucleic-acid assay.
Assay [5] concerns Nucleic Acid. In words: Binding affinity to STAT3 G-quadruplex in rat cardiomyocytes assessed as down regulation of STAT3 protein expression at 10 uM after 48 hrs by Western blot analysis. Format: cell-based. For orientation: A western blot detects proteins with antibodies after separation by electrophoresis.
Assay [6] deals with Nucleic Acid. In words: Binding affinity to STAT3 G-quadruplex in rat cardiomyocytes assessed as down regulation of STAT3 gene expression at 10 uM after 48 hrs by RT-PCR analysis. Format: cell-based.
Assay [7] relates to Nucleic Acid. The assay is described as follows: Down regulation of human STAT3 gene expression in human HEK293 cells cloned with FRQ vector harboring intact G-quadruplex at 2 to 10 uM after 24 hrs by luciferase reporter gene assay. It counts as cell-based.
In assay [8] the test system is HEK293. The assay is described as follows: Down regulation of human STAT3 gene expression in human HEK293 cells cloned with DelQ vector harboring G-quadruplex G-rich sequence deletion at 2 to 10 uM after 24 hrs by luciferase reporter gene assay. Format: functional, cell-based.
The subject of assay [9] is Nucleic Acid. The assay is described as follows: Binding affinity to G-telomeric quadruplex 5'-GGGTTAGGGTTAGGGTTAGGG-3' assessed as the intensity ratio of all complex ions to the sum of all G-quadruplex and complex ions at 20 uM by ESI mass spectroscopy relative to control. It counts as nucleic-acid assay.
Assay [10] concerns Nucleic Acid. In words: Binding affinity to STAT3 G-quadruplex in 3'-flanking region 5'-GGGCTGGGGATGGGGAGGGGG-3' assessed as melting temperature at 10 uM by UV-Vis spectrophotometry (reference value: 58 degC). Format: nucleic-acid assay.
For assay [11], the system named is Nucleic Acid. In words: Binding affinity to STAT3 G-quadruplex in 3'-flanking region 5'-GGGCTGGGGATGGGGAGGGGG-3' assessed as melting temperature at 40 uM by UV-Vis spectrophotometry (reference value: 58 degC). It counts as nucleic-acid assay.

Activity calls are given as the source filed them. No cut-off for these calls is given here.

On to `COc1ccc2cc1Oc1ccc(cc1)C[C@H]1c3c(cc4c(c3Oc3cc5c(cc3OC)CCN(C)[C@@H]5C2)OCO4)CCN1C`, for which the Ratio stood at 0.26 in the assay with Nucleic Acid [1], 0.81 with Nucleic Acid [4] and 0.47 with Nucleic Acid [9]. In addition, the Tm with Nucleic Acid [2] stood at 62 °C; in the assay on Nucleic Acid [10], 59 °C; in the assay with Nucleic Acid [11] it was 65 °C. In addition, the inhibition result with HEK293 [3] and in the assay with HEK293 [8] was “inactive” each time. Also, the outcome in the assay on Nucleic Acid [5] and with Nucleic Acid [6] was Active. Further, the inhibition entry with Nucleic Acid [7] was “Active”.
As for `C[n+]1ccc(-c2c3nc(c(-c4cc[n+](C)cc4)c4ccc([nH]4)c(-c4cc[n+](C)cc4)c4ccc([nH]4)c(-c4cc[n+](C)cc4)c4nc2C=C4)C=C3)cc1`, the inhibition entry in the assay with HEK293 [3] and with HEK293 [8] was “inactive” each time. The Ratio in the assay with Nucleic Acid [4] came to 0.53. The outcome in the assay on Nucleic Acid [5] and in the assay on Nucleic Acid [6] was Active. In the assay on Nucleic Acid [7], the inhibition entry was “Active”.
For the compound `COc1cc2c(cc1OC)-c1c(C)c3ccc(OC)c(OC)c3c[n+]1CC2`, the Ratio in the assay on Nucleic Acid [4] was determined as 0.34.
